Our source for the IC50 and viability, T/C values is PubChem BioAssay AID2060610 (Molecular Pharmacology Branch, DTP, NCI, 2025).

The experiment concerns 616215-338-R-J1-PDC complex spheroids, viability % test/control. As to the kind of experiment: Anticancer human tumor 616215-338-R-J1-PDC patient-derived colon adenocarcinoma cell line growth inhibition [CLK]. Particulars: for viability, T/C: stronger effect = lower value. A digest of the protocol: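 Patient-derived tumor cells grown as complex spheroids with HUVEC endothelial cells and mesenchymal stem cells, treated with drug combinations. Concentrations descend in half-log steps from near clinical Cmax, or from 10 microM if Cmax unknown.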

Where “and” joins values, the source holds several entries; their conditions need not be identical. Equal values may be shown once.
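Also: spheroids exposed to agents for 7 days.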
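For viability, T/C in this document: 100% = DMSO vehicle wells.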

The IC50 is the point on the concentration scale where inhibition reaches its midpoint. In general, viability, T/C refers to the result in the treated group divided by that in the control group, in per cent. Regarding `CCCS(=O)(=O)Nc1ccc(F)c(C(=O)c2c[nH]c3ncc(-c4ccc(Cl)cc4)cc23)c1F` + CNC(=O)c1ccc(Nc2nc(OC3CCCC3)c3c(-c4ccc5nc(C)oc5c4)c[nH]c3n2)c(OC)c1, the IC50 (curve of first compound, second compound 0.0316 µM) amounted to 6930 nM; the IC50 (curve of first compound, second compound 0.1 µM) turned out to be 698 nM; the IC50 (curve of first compound, second compound 0.316 µM) was less than 31.6 nM; the half-inhibitory concentration (IC50) (curve of first compound, second compound 1 µM) is less than 31.6 nM; the IC50 (curve of first compound, second compound 3.16 µM) is less than 31.6 nM; the IC50 (curve of first compound, second compound 10 µM) is less than 31.6 nM. For the same molecule, the viability, T/C runs as follows: (second compound 0.0316 µM, first compound 0.0316 µM) 94.6%; (second compound 0.0316 µM, first compound 0.1 µM) 102%; (second compound 0.0316 µM, first compound 0.316 µM) 98.9%; (second compound 0.0316 µM, first compound 1 µM) 89.9%; (second compound 0.0316 µM, first compound 3.16 µM) 93.8%; (second compound 0.0316 µM, first compound 10 µM) 29.6%. The viability, T/C (second compound 0.1 µM, first compound 0.0316 µM) is 55%; the viability, T/C (second compound 0.1 µM, first compound 0.1 µM) is 62.2%; the viability, T/C (second compound 0.1 µM, first compound 0.316 µM) is 44.3%; the viability, T/C (second compound 0.1 µM, first compound 1 µM) was 53.6%; the viability, T/C (second compound 0.1 µM, first compound 3.16 µM) was 34.6%; the viability, T/C (second compound 0.1 µM, first compound 10 µM) was 13%. For the same molecule, the viability, T/C runs as follows: (second compound 0.316 µM, first compound 0.0316 µM) 42.4%; (second compound 0.316 µM, first compound 0.1 µM) 37.1%; (second compound 0.316 µM, first compound 0.316 µM) 39.7%; (second compound 0.316 µM, first compound 1 µM) 41.5%; (second compound 0.316 µM, first compound 3.16 µM) 27%; (second compound 0.316 µM, first compound 10 µM) 14.8%. The viability, T/C by setting is: (second compound 1 µM, first compound 0.0316 µM) 43.8%; (second compound 1 µM, first compound 0.1 µM) 38.8%; (second compound 1 µM, first compound 0.316 µM) 42.3%; (second compound 1 µM, first compound 1 µM) 30.9%; (second compound 1 µM, first compound 3.16 µM) 27.2%; (second compound 1 µM, first compound 10 µM) 11.6%. For the same molecule, the viability, T/C by setting is: (second compound 3.16 µM, first compound 0.0316 µM) 41.4%; (second compound 3.16 µM, first compound 0.1 µM) 44.3%; (second compound 3.16 µM, first compound 0.316 µM) 41.4%; (second compound 3.16 µM, first compound 1 µM) 31.6%; (second compound 3.16 µM, first compound 3.16 µM) 22%; (second compound 3.16 µM, first compound 10 µM) 10.1%. Further, the viability, T/C is, setting by setting: (second compound 10 µM, first compound 0.0316 µM) 40.4%; (second compound 10 µM, first compound 0.1 µM) 34.4%; (second compound 10 µM, first compound 0.316 µM) 38.3%; (second compound 10 µM, first compound 1 µM) 27.9%; (second compound 10 µM, first compound 3.16 µM) 21.4%; (second compound 10 µM, first compound 10 µM) 8.93%.

In the case of `CCCS(=O)(=O)Nc1ccc(F)c(C(=O)c2c[nH]c3ncc(-c4ccc(Cl)cc4)cc23)c1F`, the viability, T/C reads like this: (compound 0.0316 µM) 22.5% and 95.7%; (compound 0.1 µM) 33.6% and 96.8%; (compound 0.316 µM) 104% and 98.2%; (compound 1 µM) 96% and 95.1%; (compound 3.16 µM) 29.5% and 104%; (compound 10 µM) 0.01% and 24.1%. Further, the IC50 (curve of compound) was 1590 nM and 6690 nM.

As to `NC(=O)C(=Cn1cnc(-c2cc(C(F)(F)F)cc(C(F)(F)F)c2)n1)c1cncnc1`, the viability, T/C is, setting by setting: (compound 0.00949 µM) 99.3% and 94.8%; (compound 0.03 µM) 103% and 87.1%; (compound 0.0949 µM) 103% and 94.1%; (compound 0.3 µM) 66.9% and 87.5%; (compound 0.949 µM) 35.8% and 33.5%; (compound 3 µM) 15% and 17.6%. Further, the half-inhibitory concentration (IC50) (curve of compound) is 562 nM and 668 nM.

For `O=C(c1cc(Cc2n[nH]c(=O)c3ccccc23)ccc1F)N1CCN(C(=O)C2CC2)CC1`, the viability, T/C is, setting by setting: (compound 0.0316 µM) 96.4% and 102%; (compound 0.1 µM) 96.1% and 94.5%; (compound 0.316 µM) 87.9% and 96.6%; (compound 1 µM) 88.2% and 93.6%; (compound 3.16 µM) 106% and 99.5%; (compound 10 µM) 97.4% and 99.5%. Further, the IC50 (curve of compound) is greater than 10000 nM.

On to `CC(CO)NC(=O)c1cc(-c2ccc(Cl)cc2)nn(-c2cnn(C)c2)c1=O` (stereo not given), for which the viability, T/C was 90.7% and 94.5% (compound 0.0316 µM); 95.2% and 99.6% (compound 0.1 µM); 101% and 96% (compound 0.316 µM); 102% and 99.1% (compound 1 µM); 110% and 95% (compound 3.16 µM); 103% and 106% (compound 10 µM). The IC50 (curve of compound) was greater than 10000 nM.
